# Experimental data as given in patent publication US10800816B2 (Baxalta GmbH, priority 2012, dated 2020).
# pEC50, pIC50: −log10 of the molar value. “Also recorded” adds a separate entry of the source. Where a SMILES comes first, the peptide text is derived from it. Bridges are numbered along the chain shown (N, C = ends). [ ]: non-standard residue; d: D form. Tle = CC(C)(C)[C@H](N)C(=O)O; Aib = CC(C)(N)C(=O)O
# Legend:
# TFPI [1] = test: % Inhibition @ 2.5µM
# TFPI [2] = test: % Inhibition @ 0.63µM
# TFPI [3] = test: FXa Inhibition assay | EC50 (µM)
# [4] = system: Tissue Factor Pathway Inhibitor (TFPI); test: IC50 ELISA | IC50 [nM]
# Source text: Table printed on a drawing sheet, FIGURE 78G
# Head of the field: IC50 ELISA | IC50 [nM]
# [5] = system: Tissue Factor Pathway Inhibitor (TFPI); test: IC50 ELISA | Mean IC50 [nM]
# Source text: Table printed on a drawing sheet, FIGURE 78V
# Head of the field: IC50 ELISA | Mean IC50 [nM]
# TFPI [6] = test: Extrinsic Tenase Inhibition assay | % Inhibition @ 2.5μM
# [7] = system: FVIII-inhibited whole blood; test: Rotation thromboelastography (ROTEM) in whole blood; parameters: species or system human; conditions: Hem A / FVIII-inhibited human whole blood
# Experimental: Continuous visco-elastic assessment of human whole blood clot formation and firmness was performed by rotation thromboelastography with whole blood preparations in the presence or absence of peptides. […] Test samples were prepared by dissolving quantities of peptides in either DMSO or HEPES buffered saline (with or without 0.1% Tween 80).
# Recordings were made using a ROTEM thromboelastography coagulation analyzer (Pentapharm, Munich, Germany) at 37° C. Briefly, blood is added into a disposable cuvette in a heated cuvette holder. A disposable pin (sensor) is fixed on the tip of a rotating axis. The axis is guided by a high precision ball bearing system and rotates back and forth. The axis is connected with a spring for the measurement of elasticity. The exact position of the axis is detected by the reflection of light on a small mirror on the axis. The loss of elasticity when the sample clots leads to a change in the rotation of the axis. The data obtained are computer analyzed and visualized in a thromboelastogram. […] An elasticity of approximately zero is observed before clot formation begins. Mirror image traces above and below the zero line indicate the effect of clot formation on the rotation of the axis.
# The analytical set-up was as follows: to 20 μL of test sample or control, 300 μL of pre-warmed (37° C.) CTI treated citrated whole blood was added, followed by 20 μL of a 1:15 dilution of TF PRP reagent containing recombinant human tissue factor (rTF, 3 pM) (TS40, Thrombinoscope BV, Maastricht, The Netherlands). Coagulation was initiated by the addition of 20 μ200 mM CaCl2 (star-TEM®, Pentapharm, Munich, Germany) and recordings were allowed to proceed for at least 120 min. The final concentration of rTF in the assay was 11 or 44 fM.
# The thromboelastographic parameters of clotting time (CT), clot formation time (CFT) and maximum clot firmness (MCF) were recorded in accordance with the manufacturer's instructions. CT is defined as the time from the start of measurement to the start of clot formation. CFT is defined as the time from the start of clot formation until an amplitude of 20 mm is reached. MCF is the maximum difference in amplitude between the two traces during the assay. The first derivative of the data of the thromboelastogram are plotted to obtain a graph of velocity (mm/s) against time (s). From this graph, the maximum velocity (maxV) is determined. The time at which the maximum velocity is obtained (maxV-t) is also determined.
# This example describes a method for assessing clot formation in whole blood using rotation thromboelastography (ROTEM). The assay was performed as described in Example 8. The analytical set-up was as follows: 300 μL of pre-warmed (37° C.) CTI treated citrated whole blood was added to a peptide sample (10, 100, 1000 nM final assay concentration) or a control, followed by addition of a 1:15 dilution of TF PRP reagent containing recombinant human tissue factor (rTF, 3 pM) (TS40, Thrombinoscope BV, Maastricht, The Netherlands). In certain experiments, exogenous full length TFPI (flTFPI) at final concentrations of 2 or 10 nM was added to simulate flTFPI plasma levels of up to 50-fold over normal. Coagulation was initiated by the addition of 20 μL 200 mM CaCl2 (star-TEM®, Pentapharm, Munich, Germany) and recordings were allowed to proceed for at least 120 min. The final concentration of rTF in the assay was 44 fM. The thromboelastographic parameters of clotting time (CT), clot formation time (CFT) and maximum clot firmness (MCF) were recorded in accordance with the manufacturer's instructions. CT is defined as the time from the start of measurement to the start of clot formation. CFT is defined as the time from the start of clot formation until an amplitude of 20 mm is reached. MCF is the maximum difference in amplitude between the two traces during the assay.
# [8] = mouse, 24 h
# [9] = human, plasma, 24 h
# in vitro = conditions: human, plasma
# [10] = system: Tissue Factor Pathway Inhibitor (TFPI); test: IC50 ELISA | Mean IC50 [nM]; remark: listed apart in the source
molecule,measurement,setting,value
Ac-FQSKKAVFVFGYFERLRAKL-NH2 (SEQ ID NO: 288) [JBT0696],% Inhibition @ […],TFPI [1],48%
same,% Inhibition @ […],TFPI [2],26%
same,pEC50,TFPI [3],6.15
Ac-FQSKp-Nmn-VHVDGYFERL-Aib-AKL-NH2 [JBT00002287],pIC50,[4],< 6.30
Ac-FQSKpNVH-Tle-D-hcy-YFCRL-Aib-AKL-NH2 [JBT00002498],pIC50,[5],8.12
Ac-FQSKaNVFVTGYFARLRAKL-NH2 (SEQ ID NO: 54) (Ac-FQSK[dA]NVFVTGYFARLRAKL-NH2; SMILES CC(=O)N[C@@H](Cc1ccccc1)C(=O)N[C@@H](CCC(N)=O)C(=O)N[C@@H](CO)C(=O)N[C@@H](CCCCN)C(=O)N[C@H](C)C(=O)N[C@@H](CC(N)=O)C(=O)N[C@H](C(=O)N[C@@H](Cc1ccccc1)C(=O)N[C@H](C(=O)N[C@H](C(=O)NCC(=O)N[C@@H](Cc1ccc(O)cc1)C(=O)N[C@@H](Cc1ccccc1)C(=O)N[C@@H](C)C(=O)N[C@@H](CCCNC(=N)N)C(=O)N[C@@H](CC(C)C)C(=O)N[C@@H](CCCNC(=N)N)C(=O)N[C@@H](C)C(=O)N[C@@H](CCCCN)C(=O)N[C@@H](CC(C)C)C(N)=O)[C@@H](C)O)C(C)C)C(C)C) [JBT0668],% Inhibition @ […],TFPI [1],70%
same,% Inhibition @ […],TFPI [2],43%
same,pEC50,TFPI [3],6.28
Ac-SRYKWFGM[CRDMKGTMSC]VWVKF-NH2 (SEQ ID NO: 1233) (Ac-SRYKWFGMCRDMKGTMSCVWVKF-NH2; disulfide 9-18; SMILES CSCC[C@H](NC(=O)CNC(=O)[C@H](Cc1ccccc1)NC(=O)[C@H](Cc1c[nH]c2ccccc12)NC(=O)[C@H](CCCCN)NC(=O)[C@H](Cc1ccc(O)cc1)NC(=O)[C@H](CCCNC(=N)N)NC(=O)[C@H](CO)NC(C)=O)C(=O)N[C@H]1CSSC[C@@H](C(=O)N[C@H](C(=O)N[C@@H](Cc2c[nH]c3ccccc23)C(=O)N[C@H](C(=O)N[C@@H](CCCCN)C(=O)N[C@@H](Cc2ccccc2)C(N)=O)C(C)C)C(C)C)NC(=O)[C@H](CO)NC(=O)[C@H](CCSC)NC(=O)[C@H]([C@@H](C)O)NC(=O)CNC(=O)[C@H](CCCCN)NC(=O)[C@H](CCSC)NC(=O)[C@H](CC(=O)O)NC(=O)[C@H](CCCNC(=N)N)NC1=O) [JBT0462],Extrinsic Tenase Inhibition assay | % Inhibition @ […],TFPI [6],0%
Ac-FQSKpN-Chg-H-Chg-DGYFERL-Aib-AKL-NH2 [JBT00002295],pIC50,[4],< 5.30
CC(=O)N[C@@H](Cc1ccccc1)C(=O)N[C@@H](CCC(N)=O)C(=O)N[C@@H](CO)C(=O)N[C@@H](CCCCN)C(=O)N1CCC[C@@H]1C(=O)N[C@@H](CC(N)=O)C(=O)N[C@H](C(=O)N[C@@H](Cc1cnc[nH]1)C(=O)N[C@H](C(=O)N[C@@H](CC(=O)O)C(=O)NCC(=O)N[C@@H](Cc1ccc(O)cc1)C(=O)N[C@@H](Cc1ccccc1)C(=O)N[C@@H](CCC(=O)O)C(=O)N[C@@H](CCCNC(=N)N)C(=O)N[C@@H](CC(C)C)C(=O)NC(C)(C)C(=O)N[C@@H](C)C(=O)N[C@@H](CCCCN)C(=O)N[C@@H](CC(C)C)C(N)=O)C(C)C)C(C)C [JBT1857],coagulation parameters,[7],"restored coagulation parameters in Hem A blood; also recorded: positively impacted blood coagulation parameters, but performed less efficiently than JBT1837"
same,percentage of initial amount of peptide remaining in plasma,[8],< 10%
same,percentage of initial amount of peptide remaining,[8]; plasma,Less than 5%
same,percentage of original amount of peptide remaining,[9],27%
same,remaining at 24 h,in vitro,27%
Ac-SRYKWFCGMRDMKGTMSAVWVKF-NH2 (SEQ ID NO: 1160) [JBT0454],Extrinsic Tenase Inhibition assay | % Inhibition @ […],TFPI [6],0%
Ac-FQSKpN-Phg-H-Phg-DGYFERL-Aib-AKL-NH2 [JBT00002298],pIC50,[4],< 5.30
Ac-FQSKpNVH-Tle-D-hcy-YF-Hcy-RL-Aib-AKL-NH2 [JBT00002497],pIC50,[5],8.15
Ac-FQSKp-C(Acm)-VH-Tle-D[cY-Bta--Hcy-]RL-Aib-AKL- NH2 [JBT00002501],pIC50,[10],8.20
Ac-FQSKp-C(NEM)-VH-Tle-DaY-Bta-ERL-Aib-AKL-NH2 [JBT00002502],pIC50,[10],8.41
Ac-SRYKWF[CGMADMKGTMSC]VWVKF-NH2 (SEQ ID NO: 1079) (Ac-SRYKWFCGMADMKGTMSCVWVKF-NH2; disulfide 7-18; SMILES CSCC[C@@H]1NC(=O)CNC(=O)[C@@H](NC(=O)[C@H](Cc2ccccc2)NC(=O)[C@H](Cc2c[nH]c3ccccc23)NC(=O)[C@H](CCCCN)NC(=O)[C@H](Cc2ccc(O)cc2)NC(=O)[C@H](CCCNC(=N)N)NC(=O)[C@H](CO)NC(C)=O)CSSC[C@@H](C(=O)N[C@H](C(=O)N[C@@H](Cc2c[nH]c3ccccc23)C(=O)N[C@H](C(=O)N[C@@H](CCCCN)C(=O)N[C@@H](Cc2ccccc2)C(N)=O)C(C)C)C(C)C)NC(=O)[C@H](CO)NC(=O)[C@H](CCSC)NC(=O)[C@H]([C@@H](C)O)NC(=O)CNC(=O)[C@H](CCCCN)NC(=O)[C@H](CCSC)NC(=O)[C@H](CC(=O)O)NC(=O)[C@H](C)NC1=O) [JBT0446],Extrinsic Tenase Inhibition assay | % Inhibition @ […],TFPI [6],46%
Ac-FQSKpNVH-Tle-DcY-Bta--Hcy-RL-Aib-AKL-NH2 [JBT00002500],pIC50,[10],8.28
"CC(=O)N[C@@H](Cc1ccccc1)C(=O)N[C@@H](CCC(N)=O)C(=O)N[C@@H](CO)C(=O)N[C@@H](CCCCN)C(=O)N1CCC[C@@H]1C(=O)N[C@@H](CC(N)=O)C(=O)N[C@H](C(=O)N[C@@H](Cc1c[nH]cn1)C(=O)N[C@H](C(=O)N[C@@H](CC(=O)O)C(=O)N[C@@H]1CSSC[C@@H](C(=O)N[C@@H](CCCNC(=N)N)C(=O)N[C@@H](CC(C)C)C(=O)NC(C)(C)C(=O)N[C@@H](C)C(=O)N[C@@H](CCCCN)C(=O)N[C@@H](CC(C)C)C(N)=O)NC(=O)[C@H](Cc2ccccc2)NC(=O)[C@H](Cc2ccc(O)cc2)NC1=O)C(C)(C)C)C(C)C [JBT00002495, Ac-FQSKpNVH-Tle-D[cYFC]RL-Aib-AKL-NH2] (Ac-FQSK[dP]NVH[Tle]D[dC]YFCRL[Aib]AKL-NH2; disulfide 11-14)",pIC50,[5],8.47
Ac-FQSKaNVFVFGYFERLRAKL-NH2 (SEQ ID NO: 53) (Ac-FQSK[dA]NVFVFGYFERLRAKL-NH2; SMILES CC(=O)N[C@@H](Cc1ccccc1)C(=O)N[C@@H](CCC(N)=O)C(=O)N[C@@H](CO)C(=O)N[C@@H](CCCCN)C(=O)N[C@H](C)C(=O)N[C@@H](CC(N)=O)C(=O)N[C@H](C(=O)N[C@@H](Cc1ccccc1)C(=O)N[C@H](C(=O)N[C@@H](Cc1ccccc1)C(=O)NCC(=O)N[C@@H](Cc1ccc(O)cc1)C(=O)N[C@@H](Cc1ccccc1)C(=O)N[C@@H](CCC(=O)O)C(=O)N[C@@H](CCCNC(=N)N)C(=O)N[C@@H](CC(C)C)C(=O)N[C@@H](CCCNC(=N)N)C(=O)N[C@@H](C)C(=O)N[C@@H](CCCCN)C(=O)N[C@@H](CC(C)C)C(N)=O)C(C)C)C(C)C) [JBT0663],% Inhibition @ […],TFPI [1],81%
same,% Inhibition @ […],TFPI [2],60%
same,pEC50,TFPI [3],6.54
